The text below walks through data of patent US10526323B2, “Indazole and azaindazole substituted compounds as mGluR4 allosteric potentiators, compositions, and methods of treating neurological dysfunction” (Vanderbilt University, priority 2015, dated 2020).

Molecules are shown by their SMILES. Bounds are passed on as bounds.

For this assay, the target named is mGluR4 (UniProt Q14833). Kind of assay: mGluR4 potentiation assay: increase in response to an EC20 concentration of agonist (species not given). Conditions: EC50 for potentiation of mGluR4; table does not state human or rat. The class given is cell-based. In short, it runs like this: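 Human mGluR4 was expressed in CHO cells read with a Ca2+-sensitive dye; rat mGluR4 was co-expressed with GIRK in […] read by thallium flux. Potentiation is the rise over agonist-alone response, with EC50 and maximal potentiation from non-linear fits.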
What is called EC50 is the concentration at which the effect is half-maximal. Take `[2H]C([2H])([2H])n1nc(Cl)c2cc(Nc3n[nH]c4cccnc34)ccc21` [Example 282, N-(3-chloro-1-(methyl-d3)-1H-indazol-5-yl)-1H-pyrazolo[4,3-b]pyridin-3-amine]: the EC50 is above 10000 nM. Consider `Cn1nc(C2CC2)c2ccc(Nc3n[nH]c4nccnc34)cc21` [Example 4, N-(3-cyclopropyl-1-methyl-1H-indazol-6-yl)-1H-pyrazolo[3,4-b]pyrazin-3-amine], for which the 50% effective concentration (EC50) stood at 20 nM.

In the case of `Cc1nn(CC(C)(C)C)c2ccc(Nc3n[nH]c4cccnc34)cc12` [Example 119, N-(3-methyl-1-neopentyl-1H-indazol-5-yl)-1H-pyrazolo[4,3-b]pyridin-3-amine], the EC50 was found to be 295 nM. Next, `Cc1cc(Cn2nc3ccc(Nc4n[nH]c5cccnc45)cc3c2C)no1` [Example 70, N-(3-methyl-2-((5-methylisoxazol-3-yl)methyl)-2H-indazol-5-yl)-1H-pyrazolo[4,3-b]pyridin-3-amine]: 870 nM. As for `C=C(C)Cn1nc(C)c2cc(Nc3n[nH]c4nccnc34)ccc21` [Example 128, N-(3-methyl-1-(2-methylallyl)-1H-indazol-5-yl)-1H-pyrazolo[3,4-b]pyrazin-3-amine], the EC50 was 49 nM.

Take `Cn1nc(C2CC2)c2ccc(Nc3n[nH]c4cccnc34)cc21` [Example 1, N-(3-cyclopropyl-1-methyl-1H-indazol-6-yl)-1H-pyrazolo[4,3-b]pyridin-3-amine]: the EC50 came to 43 nM. For the compound `COc1cc(Nc2n[nH]c3cccnc23)cc2c1cnn2C` [Example 52, N-(4-methoxy-1-methyl-1H-indazol-6-yl)-1H-pyrazolo[4,3-b]pyridin-3-amine], the EC50 stood at 718 nM. With `CCCn1nc(C)c2cc(Nc3n[nH]c4nccnc34)ccc21` [Example 131, N-(3-methyl-1-propyl-1H-indazol-5-yl)-1H-pyrazolo[3,4-b]pyrazin-3-amine], the EC50 is 107 nM. Consider `Cc1nn(C)c2ccc(Nc3n[nH]c4nccnc34)cc12` [Example 99, N-(1,3-dimethyl-1H-indazol-5-yl)-1H-pyrazolo[3,4-b]pyrazin-3-amine], for which the EC50 worked out at 757 nM. On to `Cc1nn(CC2CC(c3ncccc3F)=NO2)c2ccc(Nc3n[nH]c4cccnc34)cc12` (centres unmarked) [Example 115, N-(1-((3-(3-fluoropyridin-2-yl)-4,5-dihydroisoxazol-5-yl)methyl)-3-methyl-1H-indazol-5-yl)-1H-pyrazolo[4,3-b]pyridin-3-amine], for which the concentration for a half-maximal effect (EC50) came to 135 nM. Regarding `Cn1ncc2c(Nc3n[nH]c4cccnc34)cccc21` [Example 33, N-(1-methyl-1H-indazol-4-yl)-1H-pyrazolo[4,3-b]pyridin-3-amine], the EC50 was above 10000 nM. As to `Cn1nc(OCC(F)(F)F)c2ccc(Nc3n[nH]c4cccnc34)cc21` [Example 182, N-(1-methyl-3-(2,2,2-trifluoroethoxy)-1H-indazol-6-yl)-1H-pyrazolo[4,3-b]pyridin-3-amine], the EC50 stood at 198 nM. Turning to `[2H]C([2H])(C)n1nc(C)c2cc(Nc3n[nH]c4nccnc34)ccc21` [Example 127, N-(1-(ethyl-1,1-d2)-3-methyl-1H-indazol-5-yl)-1H-pyrazolo[3,4-b]pyrazin-3-amine], the EC50 was determined as 154 nM. Next, `Cn1ncc2cc(Nc3n[nH]c4cccnc34)cnc21` [Example 151, N-(1-methyl-1H-pyrazolo[3,4-b]pyridin-5-yl)-1H-pyrazolo[4,3-b]pyridin-3-amine]: 582 nM; `Clc1cc(Nc2n[nH]c3cccnc23)cc2cnn(CC3CCC3)c12` [Example 65, N-(7-chloro-1-(cyclobutylmethyl)-1H-indazol-5-yl)-1H-pyrazolo[4,3-b]pyridin-3-amine]: 76 nM. As to `Cn1ncc2cc(Nc3n[nH]c4cccnc34)ccc21` [Example 55, N-(1-methyl-1H-indazol-5-yl)-1H-pyrazolo[4,3-b]pyridin-3-amine], the EC50 was determined as 790 nM. Turning to `Cc1cc(Cn2cc3ncc(Nc4n[nH]c5nccnc45)cc3n2)no1` [Example 145, N-(2-((5-methylisoxazol-3-yl)methyl)-2H-pyrazolo[4,3-b]pyridin-6-yl)-1H-pyrazolo[3,4-b]pyrazin-3-amine], the EC50 was above 10000 nM.

For `Cn1nc(OCc2ccncc2)c2ccc(Nc3n[nH]c4cccnc34)cc21` [Example 238, N-(1-methyl-3-(pyridin-4-ylmethoxy)-1H-indazol-6-yl)-1H-pyrazolo[4,3-b]pyridin-3-amine], the EC50 stood at 65.8 nM. `CC1=NOC(Cn2nc(C)c3cc(Nc4n[nH]c5cccnc45)ccc32)C1` (centres unmarked) [Example 121, N-(3-methyl-1-((3-methyl-4,5-dihydroisoxazol-5-yl)methyl)-1H-indazol-5-yl)-1H-pyrazolo[4,3-b]pyridin-3-amine]: the EC50 worked out at 377 nM. The value for `Cc1cc(Cn2ncc3cc(Nc4n[nH]c5nccnc45)ccc32)no1` [Example 104, N-(1-((5-methylisoxazol-3-yl)methyl)-1H-indazol-5-yl)-1H-pyrazolo[3,4-b]pyrazin-3-amine] was 83 nM; that for `CCC(C)n1nc(Cl)c2cc(Nc3n[nH]c4cccnc34)ccc21` (centres unmarked) [Example 286, N-(1-(sec-butyl)-3-chloro-1H-indazol-5-yl)-1H-pyrazolo[4,3-b]pyridin-3-amine] was above 10000 nM; that for `C=CCn1nc(C)c2cc(Nc3n[nH]c4cccnc34)ccc21` [Example 109, N-(1-allyl-3-methyl-1H-indazol-5-yl)-1H-pyrazolo[4,3-b]pyridin-3-amine] was 59 nM. Next, `Cc1cc(Cn2nc(Cl)c3cc(Nc4n[nH]c5cccnc45)ccc32)no1` [Example 279, N-(3-chloro-1-((5-methylisoxazol-3-yl)methyl)-1H-indazol-5-yl)-1H-pyrazolo[4,3-b]pyridin-3-amine]: 290 nM.

In the case of `[2H]C([2H])([2H])n1ncc2cc(Nc3n[nH]c4cccnc34)ccc21` [Example 96, N-(1-(methyl-d3)-1H-indazol-5-yl)-1H-pyrazolo[4,3-b]pyridin-3-amine], the EC50 was 863 nM. `Cc1nn(C)c2ccc(Nc3n[nH]c4cccnc34)cc12` [Example 108, N-(1,3-dimethyl-1H-indazol-5-yl)-1H-pyrazolo[4,3-b]pyridin-3-amine]: the EC50 was determined as 345 nM. In the case of `Cc1c2cc(Nc3n[nH]c4cccnc34)ccc2nn1C` [Example 101, N-(2,3-dimethyl-2H-indazol-5-yl)-1H-pyrazolo[4,3-b]pyridin-3-amine], the EC50 is above 10000 nM. As to `Cn1nc(C(F)(F)F)c2cc(Nc3n[nH]c4cccnc34)ccc21` [Example 110, N-(1-methyl-3-(trifluoromethyl)-1H-indazol-5-yl)-1H-pyrazolo[4,3-b]pyridin-3-amine], the EC50 worked out at 119 nM. As for `c1cnc2c(Nc3ccc4nn(CC5CCC5)cc4c3)n[nH]c2c1` [Example 89, N-(2-(cyclobutylmethyl)-2H-indazol-5-yl)-1H-pyrazolo[4,3-b]pyridin-3-amine], the EC50 is above 10000 nM. With `Cc1nn(CC2CCC2)c2ccc(Nc3n[nH]c4ncccc34)cc12` [Example 75, N-(1-(cyclobutylmethyl)-3-methyl-1H-indazol-5-yl)-1H-pyrazolo[3,4-b]pyridin-3-amine], the EC50 came to 187 nM.

Turning to `Cn1nc(OCc2cccnc2)c2ccc(Nc3n[nH]c4cccnc34)cc21` [Example 184, N-(1-methyl-3-(pyridin-3-ylmethoxy)-1H-indazol-6-yl)-1H-pyrazolo[4,3-b]pyridin-3-amine], the EC50 was 83 nM. `Cc1nn(CCCCN2CCCCC2)c2ccc(Nc3n[nH]c4cccnc34)cc12` [Example 283, N-(3-methyl-1-(4-(piperidin-1-yl)butyl)-1H-indazol-5-yl)-1H-pyrazolo[4,3-b]pyridin-3-amine]: the EC50 stood at 3510 nM. On to `CCCCn1nc(Cl)c2cc(Nc3n[nH]c4cccnc34)ccc21` [Example 281, N-(1-butyl-3-chloro-1H-indazol-5-yl)-1H-pyrazolo[4,3-b]pyridin-3-amine], for which the EC50 is 2430 nM. For `Cn1cc2c(Cl)cc(Nc3n[nH]c4nccnc34)cc2n1` [Example 10, N-(4-chloro-2-methyl-2H-indazol-6-yl)-1H-pyrazolo[3,4-b]pyrazin-3-amine], the EC50 turned out to be 515 nM.

Turning to `Cn1nc(C(=O)N2CCC(F)CC2)c2ccc(Nc3n[nH]c4cccnc34)cc21` [Example 164, (4-fluoro-1-piperidyl)-[1-methyl-6-(1H-pyrazolo[4,3-b]pyridin-3-ylamino)indazol-3-yl]methanone], the EC50 was determined as 1110 nM. `Cn1nc(C#N)c2ccc(Nc3n[nH]c4cccnc34)cc21` [Example 177, 1-methyl-6-(1H-pyrazolo[4,3-b]pyridin-3-ylamino)indazole-3-carbonitrile]: the EC50 stood at 467 nM.

With `COc1ccc2[nH]nc(Nc3ccc4c(C5CC5)nn(C)c4c3)c2c1` [Example 47, N-(3-cyclopropyl-1-methyl-1H-indazol-6-yl)-5-methoxy-1H-indazol-3-amine], the EC50 is above 10000 nM. For the compound `Cn1nc(OCCN2CCOCC2)c2ccc(Nc3n[nH]c4cccnc34)cc21` [Example 217, N-[1-methyl-3-(2-morpholinoethoxy)indazol-6-yl]-1H-pyrazolo[4,3-b]pyridin-3-amine], the EC50 amounted to 238 nM. `Cc1cc(Cn2nc(C)c3cc(Nc4n[nH]c5cccnc45)ccc32)on1` [Example 130, N-(3-methyl-1-((3-methylisoxazol-5-yl)methyl)-1H-indazol-5-yl)-1H-pyrazolo[4,3-b]pyridin-3-amine]: the EC50 was 63 nM. On to `CC(C)Oc1nn(C)c2cc(Nc3n[nH]c4cccnc34)ccc12` [Example 44, N-(3-isopropoxy-1-methyl-1H-indazol-6-yl)-1H-pyrazolo[4,3-b]pyridin-3-amine], for which the EC50 amounted to 413 nM.

With `Cc1cc(COc2nn(C)c3cc(Nc4n[nH]c5cccnc45)ccc23)on1` [Example 45, N-(1-methyl-3-((3-methylisoxazol-5-yl)methoxy)-1H-indazol-6-yl)-1H-pyrazolo[4,3-b]pyridin-3-amine], the EC50 was 104 nM. Regarding `CCCCCn1nc(C)c2cc(Nc3n[nH]c4nccnc34)ccc21` [Example 95, N-(3-methyl-1-pentyl-1H-indazol-5-yl)-1H-pyrazolo[3,4-b]pyrazin-3-amine], the EC50 amounted to 35 nM.
